“And” between values parts separate entries of the source, which are not always exact repeats. Identical values can stand only once.
Tests used:
APP/PS1 mice = experiment: fear conditioning (Supplementary Fig 7e); assay type: in vivo, mouse; settings: N-AS vs vehicle APP/PS1
Procedure: Transgenic mouse lines over-expressing the hAPP695swe (APP) and presenilin-1M146V (PS1) mutations were originated from GlaxoSmithKline (Harlow, UK)[32] and maintained as described previously. We purchased 5×FAD mice from Jackson Labs (Stock number. 34840-JAX). Because APP/PS1 and 5xFAD mice show sex differences in disease progression, we used only male mice. To examine possible therapeutic effect of N-AS and aspirin in APP/PS1 mice, the N-AS (30 mg kg^−1, Sigma-Aldrich, 01912) was injected daily s.c. for 8 weeks to 7-months-old APP/PS1 mice until the age of 9 months, and aspirin (2 mg kg^−1, Sigma-Aldrich, A5376)[33] was administrated orally to 7-months-old APP/PS1 mice for 8 weeks. […] Block randomization method was used to allocate the animals to experimental groups. To eliminate the bias, we were blinded in experimental progress such as data collection and data analysis. Mice were housed at temperature of 22 °C and a 12 h day/12 h night cycle with free access to tap water and food pellets. All protocols were approved by the Kyungpook National University Institutional Animal Care and Use Committee. […] Freezing was analyzed for 5 min. […] Overall activity in the box was measured, and the amount of time and distance traveled in the center arena was noted. […] The total number of transitions, latency to first enter the light chamber, distance traveled, and time spent in each chamber were recorded.

astrocyte = experiment: N-AS generation in primary cultured cells (LC-MS/MS); assay type: cell-based, C57BL/6 mice; parameters: dose or concentration left out as unconfirmed; settings: Ab, replicates
Procedure: (§1) Reactions were quenched by adding equal volume of cold methanol. A 100 μl aliquot of the reaction mixture was mixed with 30 μl of distilled water containing 5 ng ml^−1 of furosemide (internal standard) for 1 min and vigorously mixed with […] of ethyl acetate for 20 min. After centrifugation at 16,000×g for 10 min, the mixtures were kept for 2 h for freezing aqueous phase. The upper ethyl acetate layer was transferred to a clean tube and evaporated to dryness under a gentle stream of nitrogen. Then, the dried extract was reconstituted in 100 µl of mobile phase and 10 µl aliquot of the solution was injected into an Agilent 6470 Triple Quad LC–MS/MS system (Agilent, Wilmington, DE) coupled with an Agilent 1260 HPLC system. […] Quantification was carried out using multiple reaction monitoring (MRM) at m/z 340.3→263.3 for N-AS and m/z 328.9→284.8 for furosemide (internal standard) in negative ionization mode and collision energy of 20 eV. […]
(§2) To confirm the generation and roles of N-AS in neurons, cells from E18 C57BL/6 mice were prepared as previously described. […] Aβ 1–42 (10 μM, 24 h, Invitrogen, 03112) was exposed to neurons and the cells were analyzed for the generation and roles of N-AS. […]

microglia = experiment: as above; assay type: cell-based, C57BL/6 mice; parameters: dose or concentration left out as unconfirmed; settings: Ab, replicates
Procedure: as §1, §2

Molecule | memory formation, fear conditioning (APP/PS1 mice) | N-AS quantification (Fig 3a) (astrocyte) | N-AS quantification (Fig 3a) (microglia)
CCCCCCCCCCCCC/C=C/[C@@H](O)[C@H](CO)NC(C)=O [N-AS, N-((2S,3R,E)-1,3-Dihydroxyoctadec-4-en-2-yl)acetamide] | largely protected from this defect |  | 
Ab: Aβ 1–42 (Invitrogen, 03112) used to induce an AD environment in cells |  | 0.05349 and 0.0246 and 0.05789 and 0.03905 and 0.04125 and 0.04847 | 1.15 and 1.365 and 1.237 and 1.2575 and 1.301 and 1.247

— article PMC7217877, “N-AS-triggered SPMs are direct regulators of microglia in a model of Alzheimer’s disease” (Nature Communications, 2020)
